According to patent publication US7615554B2, “Erastin and erastin binding proteins, and uses thereof” (Prolexys Pharmaceuticals, Inc., priority 2005, dated 2009):

Key:
[1] = test system: BJ primary cells; assay: Calcein AM viability assay, BJ cells; type: cell-based, human; conditions: 16-point two-fold dilution
Method: (§1) Described here is work carried out to identify compounds with increased potency or activity in the presence of hTERT, LT, ST, E6, E7 or RAS^V12. Although the work described herein made use of hTERT, LT, ST, E6, E7 and RAS^V12 as transforming genes, future studies can make use of a wide variety of cancer-associated alleles using this methodology in order to define the signaling networks that involve many oncogenes and tumor suppressors. […] Cell viability was measured using the dye calcein acetoxymethyl ester (calcein AM) (Wang et al., 1993, Hum. Immunol. 37, 264-270), which is a non-fluorescent compound that freely diffuses into cells. […]
(§2) Calcein acetoxylmethyl ester (AM) is a cell membrane-permeable, non-fluorescent compound that is cleaved by intracellular esterases to form the anionic, cell-impermeable, fluorescent compound calcein. […] Total fluorescence intensity in each well was recorded on a Packard Fusion platereader, and converted to a percent inhibition of signal by subtracting the instrument background and dividing by the average signal obtained when cells were not treated with any compound. […]
(§3) Mean RFU (relative fluorescence units) for untreated cells was calculated by averaging columns 1, 2, and 23 (wells with cells but lacking compounds). The calcein background was calculated by averaging column 24 (wells with calcein, but lacking cells). […]

[2] = test system: BJ-TERT/LT/ST cells; assay: Calcein AM viability assay, BJ-TERT/LT/ST cells; type: cell-based, human; conditions: 16-point two-fold dilution
Method: as §1, §2, §3

[3] = test system: BJ-TERT/LT/ST/RAS^V12 tumorigenic cells; assay: Calcein AM viability assay, BJ-TERT/LT/ST/RAS^V12 cells; type: cell-based, human; conditions: BJ-TERT/LT/ST/Ras^v12; 16-point two-fold dilution
Description: as §1, with “suppressors. Engineered cell lines with these genetic elements were used to screen 23,550 compounds, including 20,000 compounds from a combinatorial library, 1,990 compounds from the National Cancer Institute diversity collection, and 1,540 biologically active known compounds that were selected and purchased by Applicant and formatted into a screenable collection.” for “suppressors.”
as §2
as §3, with “cells). Percentage inhibition of each well was calculated as [1−(RFU−calcein control)/(untreated cell−calcein control)*100].” for “cells).”

[4] = test system: BJ-TERT/LT/RAS^V12/ST cells; assay: Calcein AM viability assay, BJ-TERT/LT/RAS^V12/ST cells; type: cell-based, human; conditions: 16-point two-fold dilution
Method: as §1, §2, §3

[5] = test system: TIP5-TERT cells; assay: Calcein AM viability assay, TIP5-TERT cells; type: cell-based, human; conditions: 16-point two-fold dilution
Method: as §1, §2, §3

[6] = test system: TIP5-TERT/LT cells; assay: Calcein AM viability assay, TIP5-TERT/LT cells; type: cell-based, human; conditions: 16-point two-fold dilution
Method: as §1, §2, §3

[7] = test system: TIP5-TERT/LT/ST/Ras^v12 cells; assay: Calcein AM viability assay, TIP5-TERT/LT/ST/Ras^v12 cells; type: cell-based, human; conditions: 16-point two-fold dilution
Method: as §1, §2, §3

[8] = test system: TIP5-TERT/E6E7 cells; assay: Calcein AM viability assay, TIP5-TERT/E6E7 cells; type: cell-based, human; conditions: 16-point two-fold dilution
Method: as §1, §2, §3

[9] = test system: TIP5-TERT/E6E7/ST cells; assay: Calcein AM viability assay, TIP5-TERT/E6E7/ST cells; type: cell-based, human; conditions: 16-point two-fold dilution
Method: as §1, §2, §3

[10] = test system: TIP5-TERT/E6E7/ST/Ras^v12 cells; assay: Calcein AM viability assay, TIP5-TERT/E6E7/ST/Ras^v12 cells; type: cell-based, human; conditions: 16-point two-fold dilution
Method: as §1, §2, §3

[11] = test system: engineered cell lines; assay: Selectivity across the engineered cell lines (calcein AM IC50 ratios); type: cell-based, human; conditions: from selectivity ratio for each subsequent pair of cell lines in a series
Method: To calculate this selectivity score between two cell lines, the IC50 for a compound in one cell line was divided by the IC50 for the same compound in a second cell line. […] The “tumor selectivity score” was calculated for each compound, by dividing the IC50 value for the compound in the parental, primary BJ cells by the IC50 value for the compound in engineered BJ-TERTALT/ST/RAS^V12 cells, containing all four genetic elements required to create tumorigenic cells (Table 1).
Applicants sought to determine the genetic basis of selectivity for each compound. That is, for each compound, they attempted to define the gene or combination of genes responsible for rendering cells sensitive to the compound (Table 1).
The IC50 in primary BJ cells was divided by the IC50 in BJ-TERT/LT/ST/RAS^V12 tumorigenic cells to obtain a tumor selectivity ratio for each compound. The compound selectivity for each genetic element was determined by calculating the selectivity ratio for each subsequent pair of cell lines in a series.

[12] = test system: tumor cells versus normal cells; assay: Erastin analogs tested for activity and selectivity in tumor cells versus normal cells; type: cell-based
Description: Applicants additionally tested 135 analogs of erastin for activity and selectivity in tumor cells versus normal cells. […] This compound was named erastin B (see FIG. 8). In certain embodiments of the invention, the invention relates to the compound, erastin.
Applicants additionally tested other analogs of erastin for activity and selectivity in tumor cells versus normal cells. […] This compound was named erastin B (see FIG. 8). BJELR cells are BJ-TERT/LT/ST/RAS^V12 cells, and BJEH are BJ-TERT cells.

[13] = test system: BJ primary cells; assay: Sensitization of BJ primary cells by co-treatment (calcein AM viability); type: cell-based, human
Description: (A-C) Western blot of lysates from BJ, BJ-TERT, BJ-TERT/LT/ST, BJ-TERT/LT/ST/RAS^V12, BJ-TERT/LT/RAS^V12 and BJ-TERT/LT/RAS^V12/ST cells with an antibody directed against topoisomerase II (A) or TOPI (B, C). In panel (C), cells were transfected with a siRNA directed against TOPI, lamic A/C or with a control double strand DNA duplex of the same length (TOPI dsDNA). In each case, the blot was probed with an antibody against eIF-4E to identify differences in the amount of protein loaded. The relative amount is quantitated below each band. (D) A TOPI siRNA prevents cell death caused by camptothecin in engineered tumor cells. Cell number was determined after transfection with a siRNA directed against TOPI and treatment with the indicated concentrations of camptothecin. (E) Okadaic acid, an inhibitor of PP2A and other cellular phosphatases, sensitizes primary human cells to camptothecin. BJ primary cells were treated simultaneously with the indicated concentrations of both camptothecin and okadaic acid and the effect on calcein AM viability staining was determined. […] BJ primary cells were treated with the indicated concentrations of okadaic acid and the expression level of TOPI was determined by western blot. The relative amount is quantitated below each band.
The compounds in group (iii) are camptothecin (CPT) and a novel compound from a combinatorial library, which Applicants have named erastin, for eradicator of RAS and ST-expressing cells (FIG. 2). Efficient CPT-induced and erastin-induced cell death requires the presence of both ST and RAS^V12 (FIGS. 3 and 4 and Table 1). Although CPT and erastin have a similar genetic basis of selectivity, they have distinct mechanisms of action. CPT is partially active in cells lacking RB function (via expression of E7), whereas erastin is not, and CPT requires two days to cause death in BJ-TERT/LT/ST/RAS^V12 cells, while erastin is 100% effective within 18 hours (FIGS. 3 and 4). […]

[14] = test system: TOP1; assay: Western blot for TOP1 expression in BJ primary cells; type: cell-based, human
Description: (A-C) Western blot of lysates from BJ, BJ-TERT, BJ-TERT/LT/ST, BJ-TERT/LT/ST/RAS^V12, BJ-TERT/LT/RAS^V12 and BJ-TERT/LT/RAS^V12/ST cells with an antibody directed against topoisomerase II (A) or TOPI (B, C). In panel (C), cells were transfected with a siRNA directed against TOPI, lamic A/C or with a control double strand DNA duplex of the same length (TOPI dsDNA). In each case, the blot was probed with an antibody against eIF-4E to identify differences in the amount of protein loaded. The relative amount is quantitated below each band. (D) A TOPI siRNA prevents cell death caused by camptothecin in engineered tumor cells. Cell number was determined after transfection with a siRNA directed against TOPI and treatment with the indicated concentrations of camptothecin. (E) Okadaic acid, an inhibitor of PP2A and other cellular phosphatases, sensitizes primary human cells to camptothecin. BJ primary cells were treated simultaneously with the indicated concentrations of both camptothecin and okadaic acid and the effect on calcein AM viability staining was determined. […] BJ primary cells were treated with the indicated concentrations of okadaic acid and the expression level of TOPI was determined by western blot. The relative amount is quantitated below each band. […]

[15] = test system: BJ-TERT/LT/ST/RAS^V12 cells; assay: Nuclear morphology assay; type: cell-based, human
Description: Applicants sought to characterize the type of cell death induced by CPT and erastin in tumorigenic BJ-TERT/LT/ST/RAS^V12 cells. […] To determine whether erastin or CPT induces apoptosis in their system, Applicants monitored the nuclear morphology of CPT- and erastin-treated tumorigenic cells using fluorescence microscopy. […] Since nuclear morphological change is required of apoptotic cells, Applicants conclude that cell death induced by erastin is non-apoptotic. […] Additionally, nuclei remained intact in erastin-treated tumor cells (FIG. 9).
200,000 tumorigenic BJ-TERT/LT/ST/RAS^V12 cells were seeded in 2 mL on glass coverslips in each well of a six-well dish, treated with nothing (NT), 9 μM erastin or 1.1 μM camptothecin (CPT) in growth medium for 18 hours while incubating at 37° C. with 5% CO2. Nuclei were stained with 25 μg/mL Hoechst 33342 (Molecular Probes) and viewed using an oil immersion 100× objective on a fluorescence microscope.

[16] = test system: BJ-TERT/LT/ST/RAS^V12 cells; assay: Western blot for active caspase-3; type: cell-based, human
Method: BJ-TERT/LT/ST/RAS^V12 cells were seeded prior to the experiment at 5×10^5 cells in 60 mm dishes. The cells were treated with 5 μg/ml erastin (9 μM) for 2, 4, 6, 8 or 10 hours. One dish was maintained for camptothecin treatment (0.4 μlg/ml for 24 h) as a positive control. Cells were lysed after each time point in lysis buffer (50 mM HEPES KOH pH 7.4, […], 2 mM EDTA, 0.5% Triton X-100, 1.5 mM Na3VO4, 50 mM NaF, 10 mM sodium pyrophosphate, 10 mM sodium beta-glycerophosphate and protease inhibitor tablet (Roche)). Protein content was quantified using a Biorad protein assay reagent. Equal amounts of protein were resolved on 16% SDS-polyacrylamide gel. The electrophoresed proteins were transblotted onto a PVDF membrane, blocked with 5% milk and incubated with anti-active caspase-3 polyclonal antibody (BD Pharmingen) at 1:1500 dilution overnight at 4° C. The membrane was then incubated in anti-rabbit-HRP (Santa Cruz Biotechnology) at 1:3000 dilution for 1 hour and developed with an enhanced chemiluminescence mixture (NEN life science, Renaissance). To test for equivalent loading in each lane, blots were stripped, blocked, and probed with an anti-eIF-4E antibody (BD Transduction laboratories) at 1:1000 dilution.

Cc1c2ccccc2c(CSC(=N)N)c2ccccc12.Cl [NSC146109]
concentration required to achieve 50% inhibition of calcein AM staining (IC50) [1]: >5 µg/mL | concentration required to achieve 50% inhibition of calcein AM staining (IC50) [2]: 2.5 µg/mL | concentration required to achieve 50% inhibition of calcein AM staining (IC50) [3]: 2.5 µg/mL | concentration required to achieve 50% inhibition of calcein AM staining (IC50) [4]: 2.5 µg/mL | concentration required to achieve 50% inhibition of calcein AM staining (IC50) [5]: >5 µg/mL | concentration required to achieve 50% inhibition of calcein AM staining (IC50) [6]: >5 µg/mL | concentration required to achieve 50% inhibition of calcein AM staining (IC50) [7]: 2.5 µg/mL | concentration required to achieve 50% inhibition of calcein AM staining (IC50) [8]: 2.5 µg/mL | concentration required to achieve 50% inhibition of calcein AM staining (IC50) [9]: 2.5 µg/mL | concentration required to achieve 50% inhibition of calcein AM staining (IC50) [10]: 2.5 µg/mL | Genetic basis of Selectivity [11]: non-specific

erastin B
activity and selectivity of erastin analogs/derivatives [12]: active and selective, but less potent than erastin

C=C1[C@@H](O)[C@@H]2O[C@]3(CC[C@H](/C=C/[C@@H](C)[C@@H]4CC(C)=C[C@@]5(O[C@H](C[C@@](C)(O)C(=O)O)CC[C@H]5O)O4)O3)CC[C@H]2O[C@@H]1[C@@H](O)C[C@H](C)[C@H]1O[C@@]2(CCCCO2)CC[C@H]1C [okadaic acid]
sensitization to camptothecin ([13]; BJ (or BJ-TERT) cells, simultaneous treatment with camptothecin): renders BJ cells sensitive to camptothecin | sensitization to erastin ([13]; BJ or BJ-TERT cells): does not render BJ or BJ-TERT cells sensitive to erastin | expression level of TOP1 by western blot [14]: stimulates expression of TOP1

CC[C@@]1(O)C(=O)OCc2c1cc1n(c2=O)Cc2cc3ccccc3nc2-1 [Camptothecin]
Genetic basis of Selectivity [11]: RAS^v12/PP2A/RB | nuclear morphology by fluorescence microscopy ([15]; 9 μM erastin or 1.1 μM camptothecin, 18 hours): karyorhexis and margination of chromatin were clearly visible | fragmented nuclei ([15]; BJ-TERT/LT/ST/RAS^V12 cells): 10-20 % of total nuclei | cleaved, active caspase 3 [16]: appearance of cleaved, active caspase 3
